# Experimental data from ChEMBL document CHEMBL1201862, “PubChem BioAssay data set” (2004).
#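 Interpolation was linear, between the two tested concentrations surrounding the appropriate level; five concentrations were tested over 48 hours in 96-well plates. GI50 is the concentration that inhibits growth by half.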 Activity calls are given as the source filed them. Rule as the data show it: active = GI50 up to about 1.1 µM and inactive = higher.
# Columns and labels:
# Experiment in all cases: DTP human tumour cell line panel, 48 h
# 786-0 = tested on: 786-0
# A498 = tested on: A498
# A549 = tested on: A549
# ACHN = tested on: ACHN
# CAKI-1 = tested on: CAKI-1
# COLO 205 = tested on: COLO 205
# DU-145 = tested on: DU-145
# EKVX = tested on: EKVX
# HCC 2998 = tested on: HCC 2998
# HCT-15 = tested on: HCT-15
# HL-60 = tested on: HL-60
# HOP-62 = tested on: HOP-62
# HOP-92 = tested on: HOP-92
# HT-29 = tested on: HT-29
# Hs-578T = tested on: Hs-578T
# IGROV-1 = tested on: IGROV-1
# K562 = tested on: K562
# KM12 = tested on: KM12
# LOX IMVI = tested on: LOX IMVI
# M14 = tested on: M14
# MCF7 = tested on: MCF7
# MDA-MB-231 = tested on: MDA-MB-231
# MDA-MB-435 = tested on: MDA-MB-435
# MDA-N = tested on: MDA-N
# MOLT-4 = tested on: MOLT-4
# Malme-3M = tested on: Malme-3M
# NCI-H226 = tested on: NCI-H226
# NCI-H23 = tested on: NCI-H23
# NCI-H460 = tested on: NCI-H460
# NCI-H522 = tested on: NCI-H522
# NCI/ADR-RES = tested on: NCI/ADR-RES
# OVCAR-3 = tested on: OVCAR-3
# OVCAR-4 = tested on: OVCAR-4
# OVCAR-5 = tested on: OVCAR-5
# OVCAR-8 = tested on: OVCAR-8
# PC-3 = tested on: PC-3
# RPMI-8226 = tested on: RPMI-8226
# SF-268 = tested on: SF-268
# SF-295 = tested on: SF-295
# SF-539 = tested on: SF-539
# SK-MEL-28 = tested on: SK-MEL-28
# SK-MEL-2 = tested on: SK-MEL-2
# SK-MEL-5 = tested on: SK-MEL-5
# SK-OV-3 = tested on: SK-OV-3
# SNB-19 = tested on: SNB-19
# SNB-75 = tested on: SNB-75
# SW-620 = tested on: SW-620
# T47D = tested on: T47D
# TK-10 = tested on: TK-10
# U-251 = tested on: U-251
# UACC-257 = tested on: UACC-257
# UACC-62 = tested on: UACC-62
# UO-31 = tested on: UO-31
# SN12C = tested on: SN12C
# SR = tested on: SR
smiles,measurement,setting,value
CCOC(=O)N1CCC2(CC1)C[C@@](C(C)=O)(c1ccccc1)C(C)O2 (some centres not stated),GI50,786-0,> 100 µM (inactive)
same,GI50,A498,> 100 µM (inactive)
same,GI50,A549,51.3 µM (inactive)
same,GI50,ACHN,> 100 µM (inactive)
same,GI50,CAKI-1,> 100 µM (inactive)
same,GI50,COLO 205,> 100 µM (inactive)
same,GI50,DU-145,> 100 µM (inactive)
same,GI50,EKVX,> 100 µM (inactive)
same,GI50,HCC 2998,> 100 µM (inactive)
same,GI50,HCT-15,> 100 µM
same,GI50,HL-60,> 100 µM (inactive)
same,GI50,HOP-62,> 100 µM (inactive)
same,GI50,HOP-92,61.1 µM (inactive)
same,GI50,HT-29,> 100 µM (inactive)
same,GI50,Hs-578T,> 100 µM (inactive)
same,GI50,IGROV-1,> 100 µM (inactive)
same,GI50,K562,> 100 µM (inactive)
same,GI50,KM12,> 100 µM (inactive)
same,GI50,LOX IMVI,> 100 µM (inactive)
same,GI50,M14,> 100 µM (inactive)
same,GI50,MCF7,> 100 µM (inactive)
same,GI50,MDA-MB-231,> 100 µM (inactive)
same,GI50,MDA-MB-435,> 100 µM (inactive)
same,GI50,MDA-N,85.1 µM (inactive)
same,GI50,MOLT-4,> 100 µM (inactive)
same,GI50,Malme-3M,> 100 µM (inactive)
same,GI50,NCI-H226,> 100 µM (inactive)
same,GI50,NCI-H23,> 100 µM (inactive)
same,GI50,NCI-H460,> 100 µM (inactive)
same,GI50,NCI-H522,> 100 µM (inactive)
same,GI50,NCI/ADR-RES,> 100 µM (inactive)
same,GI50,OVCAR-3,> 100 µM (inactive)
same,GI50,OVCAR-4,> 100 µM (inactive)
same,GI50,OVCAR-5,> 100 µM (inactive)
same,GI50,OVCAR-8,> 100 µM (inactive)
same,GI50,PC-3,> 100 µM (inactive)
same,GI50,RPMI-8226,> 100 µM (inactive)
same,GI50,SF-268,> 100 µM (inactive)
same,GI50,SF-295,> 100 µM (inactive)
same,GI50,SF-539,> 100 µM (inactive)
same,GI50,SK-MEL-28,> 100 µM (inactive)
same,GI50,SK-MEL-2,> 100 µM (inactive)
same,GI50,SK-MEL-5,> 100 µM (inactive)
same,GI50,SK-OV-3,57.4 µM (inactive)
same,GI50,SNB-19,> 100 µM (inactive)
same,GI50,SNB-75,80.7 µM (inactive)
same,GI50,SW-620,> 100 µM (inactive)
same,GI50,T47D,17 µM (inactive)
same,GI50,TK-10,> 100 µM (inactive)
same,GI50,U-251,> 100 µM (inactive)
same,GI50,UACC-257,> 100 µM (inactive)
same,GI50,UACC-62,56 µM (inactive)
same,GI50,UO-31,> 100 µM (inactive)
c1ccc2c3nnc(c2c1)SCCSCCSc1nnc(c2ccccc12)SCCSCCS3,GI50,A549,> 100 µM (inactive)
same,GI50,ACHN,> 100 µM (inactive)
same,GI50,COLO 205,> 100 µM (inactive)
same,GI50,EKVX,> 100 µM (inactive)
same,GI50,HCT-15,> 100 µM
same,GI50,HOP-62,> 100 µM (inactive)
same,GI50,HOP-92,> 100 µM (inactive)
same,GI50,HT-29,> 100 µM (inactive)
same,GI50,Hs-578T,> 100 µM (inactive)
same,GI50,IGROV-1,> 100 µM (inactive)
same,GI50,LOX IMVI,> 100 µM (inactive)
same,GI50,M14,> 100 µM (inactive)
same,GI50,MDA-MB-231,> 100 µM (inactive)
same,GI50,MOLT-4,> 100 µM (inactive)
same,GI50,Malme-3M,> 100 µM (inactive)
same,GI50,NCI-H460,> 100 µM (inactive)
same,GI50,NCI-H522,> 100 µM (inactive)
same,GI50,NCI/ADR-RES,> 100 µM (inactive)
same,GI50,OVCAR-3,> 100 µM (inactive)
same,GI50,OVCAR-4,> 100 µM (inactive)
same,GI50,OVCAR-8,> 100 µM (inactive)
same,GI50,PC-3,> 100 µM (inactive)
same,GI50,SF-268,> 100 µM (inactive)
same,GI50,SF-295,> 100 µM (inactive)
same,GI50,SK-MEL-2,> 100 µM (inactive)
same,GI50,SK-MEL-5,> 100 µM (inactive)
same,GI50,SK-OV-3,> 100 µM (inactive)
same,GI50,SN12C,> 100 µM (inactive)
same,GI50,SNB-75,> 100 µM (inactive)
same,GI50,SR,> 100 µM (inactive)
same,GI50,SW-620,> 100 µM (inactive)
same,GI50,T47D,> 100 µM (inactive)
same,GI50,UACC-257,> 100 µM (inactive)
same,GI50,UACC-62,> 100 µM (inactive)
